From a melting point compilation (Tetko et al.; mined from patent text by program, amines drawn as free bases though some values may be those of a salt)

| melting point [°C] | Structure (SMILES) |
| --- | --- |
| 157 to 158 | CCOC(=O)C(C)(C)Oc1ccc(C(=O)Nc2ccccc2Sc2ccccc2-c2nnn[nH]2)cc1 |
| 146 to 147 | CC1(C)CC(=O)N(CCCCN2CCN(c3nsc4ccccc34)CC2)C(=O)C1 |
| 192 to 194 | CCOC(=O)c1c(Nc2cccc(SC)c2)n[nH]c1C |
| 136 to 138 | CN(C)CCC(=O)c1c(-c2ccccc2)[nH]c2ccccc12 |
| 143 to 144 | COc1ccccc1-c1c(CC(=O)O)oc(=O)c2ccccc12 |
| 103 | O=C=Nc1ccc(Oc2cc(Cl)ncn2)cc1 |
| 136 | O=C(O)Cc1ccc2c(c1)C(c1ccccc1)C(=O)O2 (configuration not stated) |
| 194 to 196 | CC1=C(C#Cc2ccccc2/C=C/C(C)=C/C(=O)O)C(C)(C)CCC1 |
| 183 to 184 | CC(=O)c1cc(C)cc(NC(=O)c2nnnn2Cc2ccccc2)c1O |
| 216 to 218 | Cc1nc2cccc(OCC(C)(C)C(=O)NC(C)C)c2c(N)c1C(=O)O |
| 84 to 86 | CCCN(c1ccncc1[N+](=O)[O-])n1ccc2ccccc21 |
| 116 to 117 | COc1cc(OC)c2ccccc2c1OC(C)=O |
| 164 to 167 | CN1Cc2ccccc2C(=O)c2cc(CC(=O)O)cc(Br)c21 |
| 87 to 89.5 | O=C(c1ccccc1)c1ccc(OCCBr)cc1O |
| 232 to 236 | CCN1CCN(C/C=C/c2ccc3c(Nc4ccc(Sc5nccn5C)c(Cl)c4)c(C#N)cnc3c2)CC1 |
| 34 to 36 | COCc1cc(Cl)ncn1 |
| 95 to 99 | CCNc1nc(SC)ncc1CNc1c(F)c(OC)cc(OC)c1F |
| 134 to 136 | COc1cc(OC)c(-c2cc3ccccc3s2)cc1C=O |
| 115 to 118 | NC1=Nc2ccc(OC(F)(F)F)cc2CS1 |
| 114 to 116 | Cc1cnnc(-c2cccc(C(F)(F)F)c2)c1 |
| 124 | CCC(C)NC(=O)Nc1ccccc1C(=O)OC (configuration not stated) |

| melting point [°C] | Structure (SMILES) |
| --- | --- |
| 108 to 112 | COC(=O)/C=C/c1ccc(OCCCC(=O)OC)cc1O |
| 157 to 158 | O=C(O)C(Cc1cnc2cc(OCc3ccc(Cl)cc3)ccc2c1)Sc1ccccc1 (configuration not stated) |
| 103 to 104 | CC(C)Oc1ccc(CCCOc2nn(Cc3ccccc3)cc2CC(=O)O)c(OCc2ccc(Cl)cc2Cl)c1 |
| 130 to 131 | COc1ccc2ccc(O)c([N+](=O)[O-])c2c1 |
| 76 to 78 | CC(C)=CCN1CCc2c(sc(N)c2C(=O)c2ccccc2)C1 |
| 64 to 66 | CC(c1ccc(Cl)cc1)N1CCC2(CC1)Cc1ccccc1O2 (configuration not stated) |
| 73 to 74.5 | CC(C)(C)OC(=O)Oc1ccc([N+](=O)[O-])cc1 |
| 116 to 118 | CN1C(c2cnc3ccccc3c2)c2ccccc2CC1(C)C (configuration not stated) |
| 122 to 124 | CCc1cc(-c2[nH]c3ccc(OC)cc3c2C)cc(CC)c1O |
| 192 | CC(=O)N1CCN(CC(=O)OC2c3ccccc3C(=O)N2c2ccc3ccc(Cl)nc3n2)CC1 (configuration not stated) |
| 157 | CN(C)C(=O)c1cc2c(NCCc3ccccc3)ncnc2s1 |
| 67 to 68 | O=C(OCc1ccc(OCCCc2ccc(Cl)cc2)cc1)c1cccnc1 |
| 170 to 171 | N#Cc1ccc(NC(=O)c2cccc(OCc3ccc(F)cc3)c2)nc1 |
| 120 to 122 | Cc1ccc(Br)c(S(=O)O)c1 |
| 125 to 129 | COc1ccnc(N2CCN(C(=S)c3ccccc3)CC2)n1 |
| 244 to 245 | O=C(O)c1ccc2ccc(-c3ccccc3)cc2c1 |
| 45 to 53 | COc1ccc2cc(CNCc3ccccc3)ccc2c1 |
| 48 to 51 | N#CCc1cccnc1C#N |
| 143 to 144 | COC(=O)C(Oc1cc(OCc2ccsc2)cc(F)c1C#N)c1ccccc1Cl (racemic) |
| 159 | Cn1ncc2c(=O)n3c(nc21)SC(c1ccccc1)C3c1ccccc1 (configuration not stated) |

More lines, now with the values behind:

| Structure (SMILES) | melting point [°C] |
| --- | --- |
| COC(=S)c1sc(C)c(Cl)c1OC | 82 to 83 |
| Cc1nc2c(cc1C=O)CCCCC2 | 38 to 40 |
| Cc1cc(-c2cc(F)c(F)cc2-c2ccc(S(C)(=O)=O)cc2)ccc1F | 167 to 168 |
| CCOC(=O)C1(n2cc(Cl)cc2C(=O)C(Cl)(Cl)Cl)CC(=O)NC1=O (configuration not stated) | 182 to 185 |
| CCOC(=O)c1cc(OCC)c(OCC)cc1[N+](=O)[O-] | 53 to 54 |
| COC(=O)c1ccc(CCc2nc(NC(C)=O)sc2Cc2ccc(S(C)(=O)=O)cc2)cc1 | 209 to 210 |
| O=c1cc(Cl)sn1-c1ccc(Cl)cc1 | 117 to 119 |
| CSc1sc(C(=O)N(C)C)c2c1C(=O)CC(C)(C)C2 | 135 to 136 |
| O=C(c1ccc2c(c1)sc(=O)n2CCOc1ccc(CC(OCC(F)(F)F)C(=O)O)cc1)C1CC1 (configuration not stated) | 124 to 128 |
| COC(=O)c1[nH]c(Br)c(Br)c1OC(C)C | 124 to 125 |
| CC(C)c1nc(CO)[nH]c1Sc1cc(Cl)cc(Cl)c1 | 191 to 192 |
| CCOC1Nc2c(ccc(C)c2OC(C)=O)C(=O)N2CCCC12 (configuration not stated) | 145 to 147 |
| CC(=O)Oc1ccc(C(=O)OCC[C@H](C)COC(=O)c2ccc(OC(C)=O)cc2)cc1 | 46 |
| Cc1nc(-c2ccc(C(F)(F)F)cc2)sc1C(=O)Nc1cc(Cl)ccc1-c1nnn[nH]1 | 325 to 337 |
| O=C(O)CCc1oc(N2CCCCC2)nc1-c1ccc(Cl)cc1 | 185 to 186 |
| Nc1c(Cl)ccc(Br)c1F | 61 to 62 |
| Cc1c(Cc2ccc(C(C)C)cc2)c2c(c(C)c1NC(=O)CC(C)(C)C)C(C)(O)C(C)(C)O2 (configuration not stated) | 170 to 171 |
| CCSc1cc(C)nc(SCC)c1NC(=O)CCCCCCCCSc1nc2ccccc2[nH]1 | 76 to 78 |
| NC(=O)c1cnn(-c2ncc(C(F)(F)F)cc2Cl)c1N | 196 |

| Structure (SMILES) | melting point [°C] |
| --- | --- |
| CSc1ccc(Cl)c(C(=O)Nc2ccc(-n3nc(C4CC4)cc3C3CC3)cc2)c1 | 168 to 173 |
| Cc1ccccc1C(=O)Nc1ccc(C(=O)N2Cc3ccccc3Cc3ccccc32)c(Cl)c1 | 138 to 150 |
| CC(C)c1cccc2c1N(CC(=O)N1CC3CCC(CC3)C1)C(=O)C(NC(=O)Nc1cccc(-c3nnn[nH]3)c1)N=C2c1ccccc1F (configuration not stated) | 212 to 222 |
| CCOC(=O)Cn1c2c([nH]c(=O)c1=O)CCC1=C2C=C(n2ccc(N3CCN(c4ccc([N+](=O)[O-])cc4)CC3)c2)CC1 | 229 |
| COCC1CN(c2ccc3cc(S(N)(=O)=O)ccc3c2)C(=O)O1 (configuration not stated) | 166 to 168 |
| CCOC(=O)c1nc2cc(C)c(C)cc2nc1Cl | 109 to 111 |
| CN(CC(=O)OC(C)(C)C)Cc1ccc(CCn2cnc3cc(-c4ccc(Cl)cc4)sc3c2=O)cc1 | 130 |
| NCc1ccc(CC(=O)Nc2cccc(C(=O)NCCC(=O)O)c2)cc1 | 108 to 109 |
| COc1cc2c(c(OC)c1/C=C/c1ccc(C(N)=O)cc1)C(C)(C)CCC2(C)C | 190 to 194 |
| CC(CCOc1ccccc1NS(C)(=O)=O)N1CCC(OC(c2ccccc2)c2cccs2)CC1 (configuration not stated) | 100 to 102 |
| CCOC(=O)C1(C(=O)OCC)CCc2cc3c(cc2C1c1cc(OC)c(O)c(OC)c1)OCO3 (configuration not stated) | 147 to 148 |
| CCOC(=O)CCc1cc(O)ccc1-c1ccc(-c2cccc(C)c2)c(CO)c1 | 57 to 59 |
| CCCCCCOc1ccc(Nc2ncc(F)c(Nc3ccc4c(c3)OCCO4)n2)cc1 | 115 to 117 |
| CN(C)c1ccc(NC(=O)N(CCC2=CCCCC2)C[C@H]2CC[C@H](CN(CCC3=CCCCC3)C(=O)Nc3ccc(N(C)C)cc3)CC2)cc1 | 152 to 155 |
| CCCNC(=O)C1(O)CC(O)C(O)C(O)C1 (configuration not stated) | 132 to 133 |
| Cc1cc(-c2cccc(C3=Nc4ccc(-c5ccc(F)cc5)cc4NC(=O)C3)c2)on1 | > 250 |
| CSc1cc2c(cc1F)C(=O)C(=O)N2 | 296 |
| CCCCCCCCCCCCCCCCCCOc1ccc(OCc2ccccc2)c(C(=O)N(CC(=O)OCC)CC(=O)OCC)c1 | 61 to 62 |
| O=c1[nH]sc2c1c(=O)c1cc(F)c(F)c(F)c1n2C1CC1 | 243 to 245 |

| Structure (SMILES) | melting point [°C] |
| --- | --- |
| COc1ccc(Cl)c(S(=O)(=O)NC(=O)c2cn3cc(C(F)(F)F)cc(Cl)c3n2)c1 | 211 to 212 |
| CCO[C@@H](Cc1ccc(OCCc2nc(-c3ccc(C(F)(F)F)cc3)oc2C)c2ccsc12)C(=O)O | 126 to 128 |
| CNS(=O)(=O)c1ccc(N2CCC(C(=O)OC)=Cc3cc(Br)ccc32)cc1 | 201 to 204 |
| CC(Cl)(Cl)C(NC(=O)c1cccc(Cl)c1)NC(=N[N+](=O)[O-])Nc1cccnc1 (configuration not stated) | 160 to 161 |
| COc1ccc(C(=O)N2CCC(N3C(=O)Cc4ccccc43)CC2)c(OC)c1 | 88 to 93 |
| NS(=O)(=O)c1cccc(-c2cc(-c3nc(-c4ccc(C(F)(F)F)nc4)cc(C(F)(F)F)n3)ccn2)c1 | 258 |
| O=C(c1cc(Br)cc(Br)c1)c1cc(Br)cc(Br)c1 | 208 to 209 |
| COc1cccc([C@H]2O[C@H](CC(=O)Nc3ccc4oc(C(=O)O)c(OCC(=O)O)c4c3)C(=O)N(CC(C)(C)CO)c3ccc(Cl)cc32)c1OC | 193 to 196 |
| O=C(c1ccccc1)n1c2ccccc2c2cc(O)c(O)cc21 | 260 to 261 |
| Nc1ccc(C=CC(=O)N2CCc3c([nH]c4ccccc34)C2c2ccc3c(c2)CCO3)cc1 (configuration not stated) | 183 |
| CC(C)c1ccc(C2=C(c3ccc(S(C)(=O)=O)cc3)OC3(CCCC3)C2=O)cc1 | 139 to 140 |
| O=S(=O)(c1cc(SC(F)(F)F)[nH]c1-c1ccc(Cl)cc1)C(F)(F)F | 118 to 122 |
| COc1cccc(Cl)c1-c1cc2c(c3c1C(=O)NC3=O)c1cc(O)ccc1n2CCCN1C[C@@H](C)N[C@@H](C)C1 | 199 to 202 |
| COCCNC(=O)c1cccc(-c2cccc3cc(Cc4cc(F)cc(F)c4)sc23)c1 | 96 to 97 |
| O=C(CCC(=O)N1CCC(c2ccc(Cl)cc2)CC1)c1ccc2c(c1)CCN(C1CCCCC1)CC2 | 128 to 130 |
| CC(ON1C(C)(C)CC2(CC1(C)C)OCC(C)(C)CO2)c1ccc(C(=O)c2ccccc2)cc1 (configuration not stated) | 104 to 117 |
| C=CCN1CCC(c2cc(-c3ccc(Cl)cc3)[nH]n2)CC1 | 165 to 167 |
| CCOC(=O)[C@H]1CC(OC(C)=O)CN1S(=O)(=O)c1ccc(C)cc1 (some centres not stated) | 82 to 83 |
